# Marks after values point to notes of the source that are not given here.
# Experiments:
# [1] = tested on: hepatic P-450 cytochrome system; assay: Hexenal sleep duration in guinea pigs; type: in vivo; conditions: oral 3 days, 50 µg/kg, control 24.76 ± 3.23
# Experimental: Change in Hexenal sleep (HS) duration is the in vivo measurable index of hepatic P-450 cytochrome system condition.
# Studies were carried out on male mice of the lines BALB/c*h75, C57B1/6, CBA, DBA/2, first generation CBF1 and BDF1 hybrides, with initial mass 18-20 g, each group including 10 mice; and on mongrel male guinea pigs with initial mass 250-300 g, each group including 24 animals. All the test compounds (from II to LII) were administered orally in drinking water and for three days at doses 50 and 500 µg/kg. Hexenal hydrochloride at a dose […] of animal mass was administered 24 hours after the last drug administration, except for line BALB/c*h75 mice, which were administered Hexenal at a dose 60 µg/kg at the same terms, and guinea pigs for which Hexenal dose was 30 µg/kg. HS duration was determined in minutes.
# [2] = tested on: Human lymphocytes; assay: PHA-induced blasttransformation of lymphocytes; type: cell-based
# Experimental: Human lymphocytes were used for blasttransformation reaction [Kiseleva E.P., Tsveibakh A.S., Goldman E.I., Pigareva N.V. Application of a micromethod to study blasttransformation of lymphocytes in humans and animals. Immunology (1985), No 1, pp. 76-78]. 10 ml blood were collected into a sterile syringe containing heparine (to final concentration 25 U/ml) and incubated to sediment red blood cells (60-90 minutes at 37°C). Leukocytic suspension layer was selected and the number of nucleated cells was calculated. The cells obtained in such a way were incubated for 72 hours in a humid atmosphere with 5% CO2 at 37°C in the cells of plates for immune reactions in RPMI-1640 medium comprising 15% fetal calf serum, […] Neomycine (incubation mixture volume 0.15 ml). 5 x 10^5 cells were introduced into each plate cell. Incubation was carried out in the presence or absence of mitogen phytohemagglutinin (PHA) (Sigma) […] or concanavalin A (ConA) (Sigma) […] with or without addition of the test compounds at different concentrations. […] H^3 -thymidine in RPMI-1640 medium were introduced into each cell 16 hours before incubation termination. Following culturing period termination, 0.15 ml cellular suspension from each plate cell were transferred on the FN-8 paper filters. Filters were dried, washed two times with normal saline for 5 minutes then twice with TCA for 60 minutes. After drying, radioactivity of samples was calculated on a counter in the ZhS-8 scintillator. Stimulation index was calculated as ratio of sample radioactivity with mitogen to sample radioactivity without mitogen.
# [3] = tested on: white mongrel male rats; assay: Paw edema induced by Freund's complete adjuvant; type: in vivo
# Experimental: Experiment was carried out on white mongrel male rats weghing 280-300 g. The model of paw edema induced by Freund's complete adjuvant (FCA), was reproduced according to the method of Ezamuzie and Umezurike [Ezamuzie Ch., Umezurike C.C. Effect of histamine H2-receptor antagonists on acute inflammatory of the rat paw oedema. J. Pharmacol. (1989), Vol. 41, pp. 261-265]. Paw volume measurement was done using a plethysmograph (Ugo Basile). Inhibition of inflammatory reaction expressed in percent, as calculated according to the formula: 100-[(R-L(exper.))/(L):(R-L(control))/(L)x100](%) [formula] where R - the right paw volume, L - the left paw volume.
# Each group included 10 animals.
# Group of animals: • Group 1 - control, animals were administered 0.5 ml of 1% starch solution. • Group 2 - animals were administered the compound XLVIII. • Group 3 - animals were administered the compound III. • Group 4 - animals were administered Naproxene.
# [4] = tested on: mongrel mice; assay: Acute hypobaric hypoxia model (AHBH); type: in vivo; conditions: oral 4 days; for Effect in percent: lifetime relative to control; for Lifetime under hypoxic conditions (minutes): mice, 170-185 mm Hg
# Experimental: The tests of determining average lifetime of animals in a closed volume and on the model of acute hypobaric hypoxia at the minimum atmospheric rarefaction (170-185 mm Hg) were used to study antihypoxic activity of the compunds of general formula (I).
# Simulation of AHBH was done in a flow-through chamber at temperature 22°C. Experiments were carried out on mongrel mice with initial body mass 20 g at the minimum rarefaction 170-185 mm Hg, that corresponds to the altitude of 10500-11000 m. Lift rate was 35 m/second. Each group included 15 animals. Compounds were administered orally, lift on to altitude was performed 2 hours after the last administration.
# Groups of animals: • Group 1 - intact control -administration of normal saline four times. • Groups 2 and 3 - administration of the compound III at doses 50 and 500 µg/kg for 4 days. • Group 4 - single administration of sodium oxybutyrate at a dose […].
# [5] = tested on: mongrel white male mice; assay: Delayed type hypersensitivity induced by sheep red blood cells; type: in vivo; conditions: DTH to sheep red blood cells; for Difference in paw masses: 24 hours; for Percent to the control / Reaction index, percent: oral
# Experimental: Studies were cartried out on mongrel white male mice with initial body mass 22-24 g. Each group included 10 animals. Mice were sensitized with intravenous injection of the suspension of 2 x 10^5 sheep red blood, cells in 0.05 ml normal saline. By day 5, the suspension of 10^8 sheep red blood cells in 0.05 ml normal saline was injected into the hind paw pad. As a control, the solvent, i.e. normal saline in equivalent amount, was injected. Reaction intensity was assessed in 24 hours by difference in the paw masses of animals. Reaction index = (Mt -Mc)/(Mc)x 100 [formula]
# The test compound III was orally administered for three days at doses 50 and 500 µg/kg according to the dosage regimen - days 3, 4 and 5, day 5 - administration of the anaphylaxis-provoking dose.
# [6] = tested on: mongrel guinea-pigs; assay: Food anaphylaxis (active anaphylactic shock) in OVA-sensitized guinea pigs; conditions: oral 3 days before provoking anaphylaxis, 50 µg/kg
molecule,measurement,setting,value
γ-L-glutamylhistamine [compound XLIV],Hexenal sleep duration (minutes),[1],13.48 ± 1.02* minutes
same,blasttranformation reaction of human lymphocytes induced by PHA,[2],stimulating effect
same,"Radioactivity, number of pulses for 20 seconds","[2]; 10^-4 M/l, +PHA",3276 ± 225 number of pulses for 20 seconds
same,Stimulation index,"[2]; 10^-4 M/l, +PHA",10.9
same,"Radioactivity, number of pulses for 20 seconds","[2]; 10^-4 M/l, no mitogen",301 ± 103 number of pulses for 20 seconds
same,"Radioactivity, number of pulses for 20 seconds","[2]; 10^-5 M/l, +PHA",2999 ± 213 number of pulses for 20 seconds
same,Stimulation index,"[2]; 10^-5 M/l, +PHA",23.2
same,"Radioactivity, number of pulses for 20 seconds","[2]; 10^-5 M/l, no mitogen",132 ± 13 number of pulses for 20 seconds
same,"Radioactivity, number of pulses for 20 seconds","[2]; 10^-6 M/l, +PHA",4414 ± 570 number of pulses for 20 seconds
same,Stimulation index,"[2]; 10^-6 M/l, +PHA",29.6
same,"Radioactivity, number of pulses for 20 seconds","[2]; 10^-6 M/l, no mitogen",150 ± 33 number of pulses for 20 seconds
same,"Radioactivity, number of pulses for 20 seconds","[2]; 10^-7 M/l, +PHA",2960 ± 210 number of pulses for 20 seconds
same,Stimulation index,"[2]; 10^-7 M/l, +PHA",9.9
same,"Radioactivity, number of pulses for 20 seconds","[2]; 10^-7 M/l, no mitogen",300 ± 107 number of pulses for 20 seconds
same,"Radioactivity, number of pulses for 20 seconds","[2]; 10^-8 M/l, +PHA",3830 ± 286 number of pulses for 20 seconds
same,Stimulation index,"[2]; 10^-8 M/l, +PHA",14.7
same,"Radioactivity, number of pulses for 20 seconds","[2]; 10^-8 M/l, no mitogen",261 ± 100 number of pulses for 20 seconds
"O=C(O)CCCC(=O)NCCc1c[nH]cn1 [compound III, N-GLUTARYLHISTAMINE]",Volume of paws (conditional units) Right,[3],1.85 ± 0.62 conditional units
same,Volume of paws (conditional units) left,[3],1.25 ± 0.34 conditional units
same,Effect in percent,[4]; 50 µg/kg,"105 ± 3,5%"
same,Effect in percent,[4]; 500 µg/kg,"113 ± 5,2%"
same,Lifetime under hypoxic conditions (minutes),[4]; 50 µg/kg,"322,0 ± 10,9 minutes"
same,Lifetime under hypoxic conditions (minutes),[4]; 500 µg/kg,"345,3 ± 15,9 minutes"
same,Difference in paw masses,"[5]; oral days 3, 4, 5, 50 µg/kg",16.7 ± 1.9 g
same,Difference in paw masses,"[5]; oral days 3, 4, 5, 500 µg/kg",17.2 ± 1.3 g
same,Percent to the control,[5]; 50 µg/kg,75.5%
same,"Reaction index, percent",[5]; 50 µg/kg,10.3 ± 1.1%
same,Percent to the control,[5]; 500 µg/kg,79.3%
same,"Reaction index, percent",[5]; 500 µg/kg,10.8 ± 0.8%
same,Lethality in percent,[6],6.7** percent

# Reference: patent EP2229935A1, “Peptide derivatives or pharmaceutically acceptable salts thereof, method for producing the same, use of said derivatives and pharmaceutical composition” (Nebolsin, Vladimir Evgenievich, priority 1997, dated 1999)
